The record followed here is patent US8455525B2, “Selective androgen receptor modulators” (Radius Health, Inc., priority 2008, dated 2013).

Structures can show the parent of a compound that is named as a salt. Bounds are passed on as bounds.

The target in the first experiment is T1, androgen receptor (AR) (Rattus norvegicus, UniProt P15207).
T1 construct: purchased Invitrogen, Madison, Wis
T1 sequence (P15207 651-902 limits assumed): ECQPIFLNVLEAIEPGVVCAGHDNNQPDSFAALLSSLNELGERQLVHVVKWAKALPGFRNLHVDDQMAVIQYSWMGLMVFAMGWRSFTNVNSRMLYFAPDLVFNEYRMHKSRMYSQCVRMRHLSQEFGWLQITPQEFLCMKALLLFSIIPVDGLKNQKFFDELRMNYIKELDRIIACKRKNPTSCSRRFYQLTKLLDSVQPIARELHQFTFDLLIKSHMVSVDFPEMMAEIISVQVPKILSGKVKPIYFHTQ
Description: androgen receptor binding assay (fluorescence polarization, Fluormone AL Green competition).
Conditions: not given
A general note: In fluorescence polarisation assays a small probe gives low polarisation when free and higher when bound to something large.
For `Cc1c(N[C@@H](c2nnc(-c3ccccc3)o2)[C@H](C)O)ccc(C#N)c1Cl` [Example 1, 2-chloro-4-((1R,2S)-2-hydroxy-1-(5-phenyl-1,3,4-oxadiazol-2-yl)propylamino)-3-methylbenzonitrile], the IC50 (commonly the concentration at which inhibition is half-maximal) was 3 nM.
In turn, `Cc1c(N[C@@H](c2nnc(-c3ccccc3)o2)[C@@H](C)O)ccc(C#N)c1Cl` [Example 3, 2-chloro-4-((1R,2R)-2-hydroxy-1-(5-phenyl-1,3,4-oxadiazol-2-yl)propylamino)-3-methylbenzonitrile] returned an IC50 of 6 nM.
Molecule `Cc1c(N[C@H](CO)c2nnc(-c3ccc(C#N)cc3)o2)ccc(C#N)c1Cl` [Example 58, (R)-2-Chloro-4-(1-(5-(4-cyanophenyl)-1,3,4-oxadiazol-2-yl)-2-hydroxyethylamino)-3-methylbenzonitrile] showed an IC50 of 10 nM.
`C[C@@H](O)[C@@H](Nc1ccc(C#N)c(C(F)(F)F)c1)c1nnc(-c2ccc(S(C)(=O)=O)cc2)o1` [Example 59, 4-((1R,2R)-2-hydroxy-1-(5-(4-(methylsulfonyl)phenyl)-1,3,4-oxadiazol-2-yl)propylamino)-2-(trifluoromethyl)benzonitrile] registered an IC50 greater than 1000 nM.
In turn, `C[C@H](O)[C@@H](Nc1ccc(C#N)c2sccc12)c1nnc(-c2ccc(F)cc2)o1` [Example 62, 4-((1R,2S)-1-(5-(4-fluorophenyl)-1,3,4-oxadiazol-2-yl)-2-hydroxypropylamino)benzo[b]thiophene-7-carbonitrile] displayed an IC50 of 15 nM.
In turn, `C[C@H](O)[C@@H](Nc1ccc(C#N)c2sccc12)c1nnc(-c2ccccc2)o1` [Example 63, 4-((1R,2S)-2-hydroxy-1-(5-phenyl-1,3,4-oxadiazol-2-yl)propylamino)benzo[b]thiophene-7-carbonitrile] gave an IC50 of 1 nM.
Same read-out and setting: next, `C[C@@H](O)[C@@H](Nc1ccc(C#N)c2sccc12)c1nnc(-c2ccc(F)cc2)o1` [Example 64, 4-((1R,2R)-1-(5-(4-fluorophenyl)-1,3,4-oxadiazol-2-yl)-2-hydroxypropylamino)benzo[b]thiophene-7-carbonitrile]: 1 nM; `C[C@@H](O)[C@@H](Nc1ccc(C#N)c2sccc12)c1nnc(-c2ccccc2)o1` [Example 65, 4-((1R,2R)-2-hydroxy-1-(5-phenyl-1,3,4-oxadiazol-2-yl)propylamino)benzo[b]thiophene-7-carbonitrile]: 1 nM.
The same measure, in the same setting: under `Cc1c(N[C@@H](c2nnc(-c3ccc(C(F)(F)F)cc3)o2)[C@H](C)O)ccc(C#N)c1Cl` [Example 68, 2-chloro-4-((1R,2S)-2-hydroxy-1-(5-(4-(trifluoromethyl)phenyl)-1,3,4-oxadiazol-2-yl)propylamino)-3-methylbenzonitrile] stands 12 nM; under `Cc1c(N[C@@H](c2nnc(-c3ccc(NC(=O)c4ccccc4)cc3)o2)[C@@H](C)O)ccc(C#N)c1Cl` [Example 69, N-(4-(5-((1R,2R)-1-(3-Chloro-4-cyano-2-methylphenylamino)-2-hydroxypropyl)-1,3,4-oxadiazol-2-yl)phenyl)benzamide], greater than 1000 nM.
Molecule `CC(=O)Nc1ccc(-c2nnc([C@H](Nc3ccc(C#N)c(Cl)c3C)[C@@H](C)O)o2)cc1` [Example 70, N-(4-(5-((1R,2R)-1-(3-Chloro-4-cyano-2-methylphenylamino)-2-hydroxypropyl)-1,3,4-oxadiazol-2-yl)phenyl)acetamide] returned an IC50 of 4 nM.
As to `CCCC(=O)Nc1ccc(-c2nnc([C@H](Nc3ccc(C#N)c(Cl)c3C)[C@@H](C)O)o2)cc1` [Example 71, N-(4-(5-((1R,2R)-1-(3-Chloro-4-cyano-2-methylphenylamino)-2-hydroxypropyl)-1,3,4-oxadiazol-2-yl)phenyl)butyramide], the IC50 stood at 280 nM.
Molecule `Cc1c(N[C@@H](c2nnc(-c3ccc(OS(=O)(=O)O)cc3)o2)[C@H](C)O)ccc(C#N)c1Cl` [Example 72, Sodium 4-(5-((1R,2S)-1-(3-chloro-4-cyano-2-methylphenylamino)-2-hydroxypropyl)-1,3,4-oxadiazol-2-yl)phenyl sulfate] yielded an IC50 of 780 nM.
The molecule `CC(=O)Nc1ccc(-c2nnc([C@H](Nc3ccc(C#N)c(Cl)c3C)[C@H](C)O)o2)cc1` [Example 78, N-(4-(5-((1R,2S)-1-(3-Chloro-4-cyano-2-methylphenylamino)-2-hydroxypropyl)-1,3,4-oxadiazol-2-yl)phenyl)acetamide] showed an IC50 of 1 nM.
Consider `Cc1c(N[C@H](CCO)c2nnc(-c3ccc(C#N)cc3)o2)ccc(C#N)c1Cl` [Example 79, (R)-2-chloro-4-(1-(5-(4-cyanophenyl)-1,3,4-oxadiazol-2-yl)-3-hydroxypropylamino)-3-methylbenzonitrile], for which the IC50 worked out at 2 nM.
On the same count and under the same terms, next, `C=Cc1c(N[C@@H](c2nnc(-c3ccc(C#N)cc3)o2)[C@H](C)O)ccc(C#N)c1Cl` [Example 80, 2-chloro-4-((1R,2S)-1-(5-(4-cyanophenyl)-1,3,4-oxadiazol-2-yl)-2-hydroxypropylamino)-3-vinylbenzonitrile]: 1 nM; `Cc1c(N[C@@H](c2nnc(-c3cccc(F)c3)o2)[C@H](C)O)ccc(C#N)c1Cl` [Example 81, 2-chloro-4-((1R,2S)-1-(5-(3-fluorophenyl)-1,3,4-oxadiazol-2-yl)-2-hydroxypropylamino)-3-methylbenzonitrile]: 2 nM.

Still in this experiment, the particulars now being: single determination or average of multiple determinations; read-out: Binding IC50 (AR-Binding Affinity).
As to `C[C@H](O)[C@@H](Nc1ccc(C#N)c2sccc12)c1nnc(-c2ccc(C#N)cc2)o1` [Example 60, 4-((1R,2S)-1-(5-(4-cyanophenyl)-1,3,4-oxadiazol-2-yl)-2-hydroxypropylamino)benzo[b]thiophene-7-carbonitrile], the IC50 was 8 nM.
For the molecule `C[C@@H](O)[C@@H](Nc1ccc(C#N)c2sccc12)c1nnc(-c2ccc(C#N)cc2)o1` [Example 61, 4-((1R,2R)-1-(5-(4-cyanophenyl)-1,3,4-oxadiazol-2-yl)-2-hydroxypropylamino)benzo[b]thiophene-7-carbonitrile], the IC50 was found to be 1 nM.

The next experiment has as its system young, orchidectomized rats. As to the kind of experiment: Rat Herschberger assay: organ weights of orchidectomized rats relative to sham. As to conditions: 10 mg/kg (po), once daily for 4 days. The class given is in vivo, rat (Sprague Dawley). From the text:
The following is a typical procedure of the in vivo evaluation of the selective androgens of this invention. In particular, this assay looks primarily at the ability of the selective androgens of this invention to increase muscle size in an immature, castrated rat. In addition, androgenic effects are looked at primarily by weighing the prostate and seminal vesicles. Selective compounds will show a greater increase in the levator ani relative to the prostate and seminal vesicles when compared to testosterone treated, castrated animals or to intact animals that have not been treated. Immature Sprague Dawley male rats were obtained Charles River Laboratories (Stoneridge, N.Y.). All animals were maintained in a temperature and humidity controlled room with a 12 hr light: 12 hr dark cycle, with ad lib access to food (TD 291615, Teklad, Madison, Wis.) and water. Rats were anesthetized and orchidectomized (GDX) or sham surgery (SHAM) was performed. After a 7-day recovery period, the animals were randomized according to weight and assigned to treatment groups (n=5), SHAM, OVX+ vehicle, OVX+Cpd treated. Testosterone propionate (TP 1 mg/kg in 5% DMSO/95% corn oil) was administered by once daily subcutaneous injections, while the compounds of the invention are dosed in vehicle (typically 20% cyclodextrin or 0.5% carboxymethylcellulose) was administered by once daily oral gavage. The rats were then dosed once daily for 4 days. All animals were euthanized via carbon dioxide inhalation 24 hs after the last dose. The prostate, seminal vesicle and levator ani and bulba cavernous (LABC) tissues were removed, weighed and recorded. Body weights were recorded for each animal at baseline and at sacrifice.
Prostate, seminal vesicle and levator ani bulbus cavernosus (LABC) are all represented as % relative to sham. After sacrifice, organ weights of young, orchidectomized rats treated with compound for 4 days are compared to sham operated animals.
In the case of `Cc1c(N[C@@H](c2nnc(-c3ccccc3)o2)[C@H](C)O)ccc(C#N)c1Cl` [Example 1, 2-chloro-4-((1R,2S)-2-hydroxy-1-(5-phenyl-1,3,4-oxadiazol-2-yl)propylamino)-3-methylbenzonitrile], the “LABC (levator ani bulbus cavernosus) weight, % relative to sham” value came to 85%; the “Prostate weight, % relative to sham” value is 46%; the “Seminal vesicle weight, % relative to sham” value is 69%.
For the molecule `Cc1c(N[C@@H](c2nnc(-c3ccccc3)o2)[C@@H](C)O)ccc(C#N)c1Cl` [Example 3, 2-chloro-4-((1R,2R)-2-hydroxy-1-(5-phenyl-1,3,4-oxadiazol-2-yl)propylamino)-3-methylbenzonitrile], the “LABC (levator ani bulbus cavernosus) weight, % relative to sham” value came to 99%; the “Prostate weight, % relative to sham” value stood at 43%; the “Seminal vesicle weight, % relative to sham” value amounted to 37%.
